Assay results: US20240390356A1, “HALOPERIDOL FOR USE IN THE TREATMENT OF SPINAL MUSCULAR ATROPHY” (UNIVERSITAT DE VALÈNCIA, priority 2021, published 2024)
Several values for one entry are separate records, joined by “and”; a condition that tells them apart may be missing. Equal values may be shown once.

Legend:
[1] = system: myoblasts derived from SMA type II patients (KM1150SMAII7PV); test: Fusion index of immortalized myoblasts derived from SMA type II patients; assay type: cell-based, human; conditions: 72 h, healthy myoblasts about 68%, patient myoblasts 50%
Experimental: Fusion index of immortalized myoblasts derived from patients with SMA type II. […] Healthy (control; abbreviated as CON) and solvent-treated 25 SMA myoblasts (0.5% DMSO) were used to establish a difference in the differentiation process. Risdiplam at 1 μM was used as a positive control. Nuclei were labeled with 4′,6-diamidino-2-phenylindole (DAPI) and myoblasts were detected using an anti-Desmin antibody. Multinuclear myotubes are marked with white arrows. The fusion index of DMSO-treated healthy and SMA differentiated myoblasts, and compound-treated SMA myoblasts, was calculated. Data were collected after analysis of at least 100 cells and statistics were calculated using Student's t-test (*p<0.05, **p<0.01, ***p<0.001).
For myoblast immunostaining, 40,000 cells were seeded in a 24-well plate (previously covered with collagen) with 400 μl of KMEM medium and incubated overnight. The following day the medium was changed for the DMEM Glutamax 4.5 g (Gibco) differentiation medium supplemented with 2% horse serum (Sigma); penicillin (100 U/ml) and streptomycin (100 mg/ml) [1% P/S; Gibco], gentamicin (50 μg/ml; Sigma) and insulin (10 μg/ml; Sigma). […] The cells were incubated for 72 h with the compounds and fixed in 4% paraformaldehyde for 10 minutes. All cell cultures were incubated at 37° C. with 5% CO2.
Nuclei were stained with DAPI. […]

[2] = system: SMN protein; test: SMN protein levels by Western blotting in fibroblasts derived from SMA type II patients; assay type: cell-based, human; conditions: 72 h, compared to 0.5% DMSO, single samples
Experimental: (§1) Fibroblasts derived from SMA patients (GM03813; Coriell Cell Repositories) were grown at 37° C. in cell culture bottles with Dulbecco's Modified Eagle Medium (DMEM; Gibco) and […] glucose. The medium was supplemented with penicillin (100 U/ml) and streptomycin ([…]) [1% P/S; Gibco] and 10% inactivated fetal bovine serum (FBS; Gibco).
(§2) For RNA extraction 400,000 GM03813 fibroblasts were seeded in 60 mm culture dishes in 4 ml of supplemented DMEM medium. The following day the medium was changed, and the candidate compound was added at its maximum non-toxic concentration. The cells were incubated for 48 hours and then washed with 1× PBS and collected in sterile 1.5 ml tubes. The same was done for the evaluation of the effect of haloperidol on the level of SMN protein (example 2) with the difference that 1,000,000 fibroblasts were used in a 100 mm cell culture plate and that the cells were collected after […] with a RIPA protein extraction buffer supplemented with a protease inhibitor cocktail (cOmplete; Roche).
Fibroblasts derived from SMA type Il patients were incubated with haloperidol at three concentrations for 72 h. 10 μg of protein extracted from cells treated with haloperidol were separated by electrophoresis with acrylamide/bis-acrylamide gels SDS-PAGE with the Mini-protean Electrophoresis System (Bio-Rad). After electrophoresis was carried out, the proteins were transferred to a nitrocellulose membrane (GE Healthcare) using a semi-dry electro-transfer system (Bio-Rad) for one hour with a constant voltage of 15 V. The membranes were incubated with a blocking solution (5% skim milk in PBST, 1× PBS, 0.1% Tween 20) for at least 1 h at room temperature. […]
Chemiluminescence was detected using SuperSignal West Pico Sensitivity Substrate (Pierce) and acquired with ImageQuant LAS 4000 (GE Healthcare). […] Statistical significance was calculated using the Student's t-test (* p<0.05, ** p<0.01, *** p<0.001).

[3] = system: delta 7 SMA mice; test: Muscular fiber morphology of quadriceps in delta 7 SMA mice; assay type: in vivo; conditions: P12, 10 days at 0.5 mg/kg, versus sham
Experimental: FIG. 9. The effect of haloperidol on muscular fiber morphology in the skeletal muscles of delta 7 mice. Comparison of quadriceps fiber morphology between sham (0.9% saline solution with 2% DMSO) and haloperidol-treated delta 7 SMA mice at P12. The measurements of the muscle fiber area (A), perimeter (B), and maximum and minimum Feret's diameter of muscle fibers (C). At least 100 fibers were analyzed from each animal; the results are shown as the averages obtained from the individual animals.
We first performed morphological analyses of the H/E-stained quadriceps muscles from mice at postnatal day 12 (P12) after 10 days of treatment with haloperidol at 0.5 mg/kg and compared it to mice treated with sham. Specifically, for the morphological analysis of quadriceps skeletal muscle sections were stained with H/E, as previously described (Valsecchi et al. (2015); Rindt et al. (2015)). To morphologically evaluate mean fiber area, perimeter, minimum and maximum Feret's diameter, more than 100 fibers for each animal were drawn with Neurolucida software (MicroBrightField Inc.) and a computer-assisted microscope (Nikon Eclipse E600 microscope). Data were obtained by the associated data analysis software NeuroExplorer (MicroBrightField): we then averaged the means obtained from single animals. Images of skeletal muscles fibers were acquired with Zeiss Axioscan Z.1 digital slide scanner microscope (Carl Zeiss AG).

[4] = system: co-culture of SMA type I motoneurons and SMA type I myoblasts; test: Motoneurons and myoblasts co-culture (MN survival, myotube area); assay type: cell-based, human; conditions: treatment every 3 days for 7 days, versus non-treated controls
Source text: SMA type I (SMA) or healthy motoneurons (MN) derived from induced pluripotent stem cells were co-cultured with SMA type I or healthy myoblasts differentiated into myotubes. […] (B) Analysis of SMA myotubes area compared to the same controls as above. […] Myotubes were marked using MF20 marker (dark green), MNs were marked with ISL1 (red), acetylcholine receptors were marked with AChR (light green) and cell nuclei were stained with Hoechst (blue).
Primary cells were isolated from skeletal muscle as described previously (Chaouch et al. 2009). These cells were expanded and differentiated as previously described. Briefly, primary and immortalized myoblasts were expanded in a mix of 199 medium/Dulbecco modified Eagles minimal essential medium (1:4 ratio) supplemented with 20% fetal bovine serum (FBS), 25 μg/mL fetuin, 0.5 ng/ml basic fibroblast growth factor, 5 ng/ml epidermal growth factor, 5 μg/mL insulin. Cells were then cultivated in a growth medium consisting of DMEM-F12 glutamax (Life Technologies) supplemented with 20% FBS (Sigma-Aldrich) and 0.1% penicillin/steptomycin (Life Technologies). Myogenic differentiation was induced by switching growth medium to DMEM supplemented with 2% horse serum (Life Technologies).
For co-culture, spinal MNs must be differentiated from hiPSC as described previously, but the embryoid bodies are dissociated at day 14 of differentiation and frozen. […]

[5] = system: SMN2 Δ7 transcript; test: qPCR quantification of SMN2 without exon 7 (Δ7) transcript in SMA fibroblasts; assay type: cell-based, human; set-up: key: relative expression (2^-ΔΔCt), normalized to reference gene; conditions: 48 hours, GM03813 fibroblasts, normalized to GAPDH, each of 3 samples
Experimental: as §1, §2
(§3) Extraction of RNA from cells was carried out with ReliaPrep™ RNA Cell Miniprep System (Promega), following the manufacturer's instructions. […] RNA concentration and salt contamination were measured with the NanoDrop spectrophotometer (ThermoFisher). The samples were stored at −80° C. […] of total RNA was retrotranscribed using SuperScript III retrotranscriptase (Invitrogen) following the manufacturer's instructions. Genomic DNA contamination was monitored in the RNA samples without the addition of retrotranscriptase.
(§4) For the quantification of the SMN2 full length (FL) and SMN2 without exon 7 (Δ7) transcripts, qPCR Probe Mix (Solis Biodyne) was used. The reaction was carried out in a multiplex manner, in which the signal from the SMN2 and GAPDH probe was read in a single reaction. 10 ng of cDNA was used as a standard and the concentration of both probes was 250 nM.
(§5) Primer sets for detection of SMN2 FL or Δ7 isoforms were used at a final concentration of 500 nM while the concentration of the primer set used for GAPDH was 150 nM. All reactions were carried out using a Step-One Real-Time PCR thermocycler (Applied Biosystems). In all cases, the experiment included 3 biological samples and three technical replicates for each sample. Expression levels were normalized to the reference gene using a 2-^ΔΔCt method. Primers were obtained from Naryshkin, N. A. et al. Science (2014) 345, 688-693.
(§6) The selected SMA fibroblast line has 3 copies of the SMN2 gene and homozygous deletion of Ex7-Ex8 in SMN1 and therefore only SMN2 gene transcripts were measured. The conditions for cell cultures and extraction protocols are described in Example 1.

[6] = system: SMN; test: SMN expression by Western Blot in tissues of SMA Δ7 mice at P12; assay type: in vivo; conditions: P12, 0.5 mg/Kg s.c. daily
Experimental: FIG. 5. Analysis of SMN expression by Western Blot.
(§7) The efficacy of Haloperidol was then tested (University of Turin, Boido et al.) in SMA Δ7 mice (purchased from Jackson Laboratory, Maine, USA; stock number 005025). This triple mutant mouse harbors two transgenic alleles and a single targeted mutant. The Tg(SMN2*delta7)4299Ahmb allele consists of a SMN cDNA lacking exon 7 whereas the Tg(SMN2)89Ahmb allele consists of the entire human SMN2 gene. […] At birth, triple mutants are noticeably smaller than normal littermates; by day 5, signs of muscle weakness appear and become progressively more pronounced over the following week as the mice display an abnormal gait, shakiness in the hind limbs and a tendency to fall over. Mean survival is approximately 13 days.
(§8) Treated SMA mice subcutaneously received 0.5 mg/Kg Haloperidol, dissolved in 2% DMSO in saline solution (HALO group), whereas control mice received an equal amount of saline solution with 2% DMSO (VHL group). Haloperidol or saline solution were daily administered, from P2 (postnatal day 2) to P12 (day of sacrifice).
At P12, Halo and VHL animals were sacrificed, and fresh spinal cords and some skeletal muscles (diaphragm, quadriceps, and gastrocnemius) were rapidly dissected. We then verified the effect of Haloperidol on SMN expression on these samples. Tissues were homogenized on ice using a pestle homogenizer in radioimmunoprecipitation assay buffer (RIPA lysis buffer) (Merck Life Sciences) supplemented with 1 mM PMSF, 1 mM DTT, 2 mM sodium orthovanadate (ThermoFisher Scientific) and 1× cOmplete™ Protease Inhibitor Cocktail (Merck Life Sciences). Sample homogenates were incubated on ice for 20 min before being centrifuged for the insoluble material separation at 14,000×g for 20 min at 4° C. Total protein concentration was assayed on supernatants using Bradford reagent (Bio-Rad). Protein denaturation was performed with NuPAGER LDS Sample Buffer supplemented with NuPAGE® Sample Reducing Agent (ThermoFisher Scientific), by heating at 95° C. for 5 min. SDS-PAGE and transfer were performed on 4-20% Mini-PROTEAN® TGX™ Precast Protein Gels and Trans-Blot® Turbo™ mini nitrocellulose membranes using a Trans-Blot® Turbo™ transfer System (Bio-Rad), respectively. Nonspecific binding sites were blocked using 5% nonfat dried milk in PBS-0.2% Tween-20 (Merck Life Sciences) (PBS-T) for 1 h at RT under shaking. […] Immunolabeling was detected with Clarity™ Western ECL Blotting Substrates (Bio-Rad) using the ChemiDoc™ imaging system (Bio-Rad). Densitometric quantitation of bands was performed with Fiji (Image J, NIH).

[7] = system: delta 7 SMA mice; test: NMJ innervation of quadriceps muscles in delta 7 SMA mice; assay type: in vivo; conditions: mean ± SEM, sham 33.75±1.31%
[8] = system: SMA motoneurons derived from hiPSCs; test: Survival rate of hiPSC-derived SMA motoneurons (ISL1-positive cells); assay type: cell-based, human; conditions: 10 days of treatment
Experimental: (B) SMA MNs survival rate analysis after 10 days of treatment at a range of concentrations. […] Kenpaullone (Ken) at 10 μM was used as as positive control in those experiments.
For spinal motor neurons (MNs) differentiation from hiPSCs, we used a previously reported protocol [Maury et al., 2015]. HiPSC were incubated in suspension in a neural induction medium containing DMEM/F12 and Neurobasal medium supplemented with B27 (Life Technologies), N2 Supplement (Life Technologies), Pen-Strep 0.1%, β-Mercaptoethanol (β-ME) 0.1% (Life Technologies), Ascorbic Acid (0.5 μM, Sigma-Aldrich), Chir99021 (3 μM, Stemgent), SB431542 (20 μM, Tocris), LDN 193189 (0.2 μM, Stemgent) and Y-27632 (10 μM, Stemcell) at a density of 0.2×10^6 cells/ml in T25 flask or 0.25×10^6 cells/ml in spinner flask. After 2 days, caudalization of the neural progenitors was obtained by addition of retinoic acid (RA 0.1 μM) and smoothened agonist (SAG, 0.5 μM). After 1 week in suspension, brain-derived neurotrophic factor (BDNF, 10 ng/ml), glial-derived neurotrophic factor (GDNF, 10 ng/ml), and N-[N-(3,5-Difluorophenacetyl)-L-alanyl]-S-phenylglycine t-butyl ester (DAPT, 10 nM) were added in the medium without SB431542 and LDN193189. Between day 10 and 14, MN progenitors are converted into MNs. […]
The survival of MNs was determined by quantifying the number of ISL1-positive cells in each condition.

[9] = system: SMN2 FL transcript; test: qPCR quantification of SMN2 full length (FL) transcript in SMA fibroblasts; assay type: cell-based, human; set-up: key to SMN2 FL isoform levels: relative expression (2^-ΔΔCt), normalized to reference gene; conditions: for SMN2 FL isoform levels: 48 hours, GM03813 fibroblasts, normalized to GAPDH, each of 3 samples
Experimental: as §1, §2, §3, §4, §5, §6

[10] = system: SMA Δ7 mice; test: Body weight and behavioral motor tests in SMA Δ7 mice; assay type: in vivo
Experimental: FIG. 4. Effect of Haloperidol treatment on weight and motor performances of SMN Δ7 mice. […] VHL (vehicle, 0.9% saline solution with 2% DMSO) n=8, HALO (haloperidol) n=5. Results are expressed as mean±SEM (two-way ANOVA, * p≤0.05; ** p≤0.01; *** p≤0.001; **** p≤0.0001).
as §7, §8
During the whole period, the animals underwent a number of behavioral motor tests: tail suspension test, righting reflex, hindlimb suspension test, negative geotaxis (El-Khodor et al. 2008, Boido et al. 2018). Mice were evaluated daily starting from P2 for body weight and behavioral performances: • Tail suspension test (self-clasping): pups were suspended by the tail for 15 s, and their hind-limb posture was scored in a scale from 4 (normal) to 0 (clasping); • Righting reflex: pups were placed on their backs on a flat surface; their success or failure to reposition themselves dorsal side up was assessed over a 30 s period; • Negative geotaxis test: starting from P4, pups we placed on an inclined grid with the mouse head facing down (cut off: max 60 s).

[11] = 0.5 mg/Kg subcutaneously daily P2 to P12, versus VHL

O=C(CCCN1CCC(O)(c2ccc(Cl)cc2)CC1)c1ccc(F)cc1 [haloperidol]
fusion index ([1]; 2.5 μM): 66.7% | SMN protein levels ([2]; 25 μM): 1.132 and 1.751 and 1.745 | SMN protein levels ([2]; 37.5 μM): 2.265 and 2.211 and 2.469 | SMN protein levels ([2]; 50 μM): 2.413 and 2.453 and 2.614 | increase in Max Feret's diameter [3]: +40% | increase in fiber area [3]: +104% | increase in fiber perimeter [3]: +43% | increase in min Feret's diameter [3]: +49% | area of myotubes in co-culture [4]: increases the area of myotubes | survival rate of SMA MNs in co-culture [4]: increases the survival rate of SMA MNs | SMN2 Δ7 isoform levels ([5]; 10 μM): 0.90 and 0.89 | SMN2 Δ7 isoform levels ([5]; 25 μM): 1.00 and 1.06 and 1.04 | SMN2 Δ7 isoform levels ([5]; 37.5 μM): 0.96 and 1.01 and 1.03 | SMN2 Δ7 isoform levels ([5]; 50 μM): 1.89 and 1.23 | SMN expression increase compared to VHL ([6]; diaphragm): 23% | SMN expression increase compared to VHL ([6]; gastrocnemius): 102% | SMN expression increase compared to VHL ([6]; quadriceps): 123% | SMN expression increase compared to VHL ([6]; spinal cord): 58% | denervated endplates [7]: 9.50±1.50% | SMA motoneurons survival rate ([8]; 0.32 μM): almost completely rescue | SMA motoneurons survival rate compared with positive control ([8]; versus kenpaullone at 10 μM): more efficient than the positive control kenpaullone | SMN2 FL isoform levels ([9]; 10 μM): 1.10 and 1.03 and 1.06 | SMN2 FL isoform levels ([9]; 25 μM): 1.15 and 1.37 and 1.07 | SMN2 FL isoform levels ([9]; 37.5 μM): 1.32 and 1.47 and 1.51 | SMN2 FL isoform levels ([9]; 50 μM): 2.54 and 2.11 and 2.33 | amount of FL SMN2 transcript ([9]; at the highest concentration): doubled | body weight [10, 11]: significant weight increase | negative geotaxis test [10, 11]: improved motor performances | righting reflex test [10, 11]: improved motor performances | tail suspension test [10, 11]: improved motor performances | side effects (behavioral changes or sedation phenotypes) ([10]; murine SMA model, haloperidol administration): not associated with any conspicuously deleterious or undesirable side effects

Cc1cn2nc(-c3cc(=O)n4cc(N5CCNC6(CC6)C5)ccc4n3)cc(C)c2n1 [risdiplam]
fusion index ([1]; 1 μM (positive control)): 66.7%
